Source: ChEMBL document CHEMBL1156072, “Twenty-six years of anti-HIV drug discovery: where do we stand and where do we go?” (J Med Chem, 2010)

Columns and labels:
[1] = Oral bioavailability in rat; format: ADME, organism-based; conditions: in vivo
[2] = Oral bioavailability in dog; format: ADME, organism-based, Canis lupus familiaris; conditions: in vivo

COc1cc2c(cc1Cc1cccc(Cl)c1F)c(=O)c(C(=O)O)cn2[C@H](CO)C(C)C [ELVITEGRAVIR]
bioavailability [1]: 34%
bioavailability [2]: 30%
